In US8859574B2 (IRM LLC, priority 2008, dated 2014):

What follows are compounds tested against T1, IGF-1R Ba/F3 (Homo sapiens, UniProt P08069) (assay: Ba/F3 Cell Viability Inhibition Assay (IGF-1R Ba/F3)). Conditions: Tel-TK transformed Ba/F3 cells, 48 hours, Britelite luminescence.
T1 construct: fused on or other part: TEL- (or BCR-) IGF-1R in Ba/F3: the kinase part holds the site
T1 sequence (P08069 999-1274 limits assumed): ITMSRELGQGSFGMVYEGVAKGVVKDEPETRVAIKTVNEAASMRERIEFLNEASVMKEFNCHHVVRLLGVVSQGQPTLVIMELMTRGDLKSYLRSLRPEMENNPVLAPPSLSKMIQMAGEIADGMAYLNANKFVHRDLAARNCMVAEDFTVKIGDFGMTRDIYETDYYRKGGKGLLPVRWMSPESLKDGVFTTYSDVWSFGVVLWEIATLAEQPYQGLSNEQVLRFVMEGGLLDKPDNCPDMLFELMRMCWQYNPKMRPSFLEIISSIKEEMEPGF
Assay type: cell-based, murine
From the text: The IC50 of a drug may be determined constructing a dose-response curve and examining the effect of different concentrations of antagonist on reversing agonist activity. IC50 values may be calculated for a given antagonist by determining the concentration needed to inhibit half of the maximum biological response of the agonist. To calculate IC50 values, a series of dose-response data (e.g., drug concentrations x1, x2, . . . , xn and growth inhibition y1, y2, . . . , yn, the values of y are in the range of 0-1) is generated. IC50 values may be determined by a computer-aided system using the formula: y=D+((A−D)/(1+10^(x-log(IC50)B) • where A is the ratio of growth inhibition between lowest drug concentration and control; B is the slope of sigmoidal curvel; and D is the ratio of growth inhibition between highest drug concentration and control.
Ba/F3 is a murine IL-3-dependent pro-B lymphoma cell line. Parental Ba/F3 cells are used to generate a panel of sublines whose proliferation and survival is rendered IL-3-independent by stable transduction with individual tyrosine kinases activated by fusion with the amino-terminal portion of TEL (amino acid 1-375) or BCR. In order to generate Ba/F3 cell lines transformed by Tel-Tyrosine Kinase (TK) fusions, parental Ba/F3 cells are infected with a retrovirus harboring each TEL-fusion kinase and subjected to puromycin selection and IL-3 withdrawal to obtain IL-3-independent, transformed Ba/F3 cells.
Each transformed Ba/F3 cells are cultured in RPMI-1640 media (Gibco Cat #11875093, Carlsbad, Calif.) supplemented with 10% FBS (Hyclone Cat #SV30014.03, Logan, Utah), 4.5 g/L glucose (Sigma #G5400, St. Louis, Mo.), 1.5 g/L sodium bicarbonate (Biowhittaker #17-613E, Walkersville, Md.) and Pen/Strep (Gibco #10378-016, Carlsbad, Calif.). Cells are splitted twice weekly.
The potency of test compounds against various Tel-TK transformed Ba/F3 lines is determined as follows. Exponentially growing BaF3 Tel-TK cells are diluted in fresh medium to 75,000 cells/mL and seeded into 384-well plates (3750 cells/well) at 50 μL/well using a μFill liquid dispenser (BioTek, Winooski, Vt., USA). Duplicate plates are run for each cell line. Test and control compounds are serially diluted with DMSO and arrayed in a polypropylene 384-well plate. […] of compound is transferred into the assay plates using a pin-transfer device, and the plates are incubated at 37° C. (5% CO2) for 48 hours. 25 μL Britelite (Perkin Elmer) is added and luminescence is quantified using Analyst GT (Molecular Devices). Custom curve-fitting software is used to produce a logistic fit of percent cell viability as a function of the logarithm of inhibitor concentration. The IC50 is interpolated as the concentration of compound needed to reduce cell viability to 50% of a DMSO control. Parental Ba/F3 cells that are maintained and cultured in presence of IL-3 (1 ng/ml in final) are diluted in fresh medium containing IL-3 (1 ng/ml in final) to 75,000 cells/mL following the same procedure as described above.
`Cc1cc(Nc2nc(Nc3cc(C)c(C4CCN(CCC(F)(F)F)CC4)cc3F)ncc2Cl)n[nH]1` [Compound 24, 5-chloro-N^2-(2-fluoro-5-methyl-4-(1-(3,3,3-trifluoropropyl)piperidin-4-yl)phenyl)-N^4-(5-methyl-1H-pyrazol-3-yl)pyrimidine-2,4-diamine] gave an IC50 of 85 nM. Work on `Cc1cc(Nc2nc(Nc3cc(C)c(C4CCN(C(=O)[C@H]5CCCN5C)CC4)cc3F)ncc2Cl)n[nH]1` [Compound 134, (R)-(4-(4-(5-chloro-4-(5-methyl-1H-pyrazol-3-ylamino)pyrimidin-2-ylamino)-5-fluoro-2-methylphenyl)piperidin-1-yl)(1-methylpyrrolidin-2-yl)methanone] yielded an IC50 of 21 nM. `Cc1cc(Nc2nc(Nc3cc(C)c(C4CCN(C(=O)C(C)(C)N)CC4)cc3C)ncc2Cl)n[nH]1` [Compound 89, 2-amino-1-(4-(4-(5-chloro-4-(5-methyl-1H-pyrazol-3-ylamino)pyrimidin-2-ylamino)-2,5-dimethylphenyl)piperidin-1-yl)-2-methylpropan-1-one] was tested, and the IC50 was 23 nM. `CCS(=O)(=O)CCN1CCC(c2cc(F)c(Nc3ncc(Cl)c(Nc4cc(C)[nH]n4)n3)cc2C)CC1` [Compound 57, 5-chloro-N2-(4-(1-(2-(ethylsulfonyl)ethyl)piperidin-4-yl)-2-fluoro-5-methylphenyl)-N4-(5-methyl-1H-pyrazol-3-yl)pyrimidine-2,4-diamine] gave an IC50 of 21 nM. With `CCNC(=O)C(CC)N1CCC(c2cc(C)c(Nc3ncc(Cl)c(Nc4cc(C)[nH]n4)n3)cc2C)CC1` (centres unmarked) [Compound 190, 2-(4-(4-(5-chloro-4-(5-methyl-1H-pyrazol-3-ylamino)pyrimidin-2-ylamino)-2,5-dimethylphenyl)piperidin-1-yl)-N-ethylbutanamide] the IC50 was 7 nM. In the case of `Cc1cc(Nc2nc(Nc3cc(C)c(C4CCCCN4C[C@H](O)C(F)(F)F)cc3C)ncc2Cl)n[nH]1` (stereo partly drawn) [Compound 197, (2S)-3-(2-(4-(5-chloro-4-(5-methyl-1H-pyrazol-3-ylamino)pyrimidin-2-ylamino)-2,5-dimethylphenyl)piperidin-1-yl)-1,1,1-trifluoropropan-2-ol], the IC50 is reported as 210 nM. Compound `Cc1cc(Nc2nc(Nc3cc(Cl)c(C4CCN(C(=O)CN(C)C)CC4)cc3C)ncc2Cl)n[nH]1` [Compound 74, 1-(4-(2-chloro-4-(5-chloro-4-(5-methyl-1H-pyrazol-3-ylamino)pyrimidin-2-ylamino)-5-methylphenyl)piperidin-1-yl)-2-(dimethylamino)ethanone] has an IC50 of 7 nM. In the case of `CNC(=O)CN1CCC(c2cc(F)c(Nc3ncc(Cl)c(Nc4cc(C)[nH]n4)n3)cc2C)CC1` [Compound 42, 2-(4-(4-(5-chloro-4-(5-methyl-1H-pyrazol-3-ylamino)pyrimidin-2-ylamino)-5-fluoro-2-methylphenyl)piperidin-1-yl)-N-methylacetamide], the IC50 is reported as 19 nM. Work on `CCNC1(C(=O)N2CCC(c3cc(F)c(Nc4ncc(Cl)c(Nc5cc(C)[nH]n5)n4)cc3C)CC2)CC1` [Compound 169, (4-(4-(5-chloro-4-(5-methyl-1H-pyrazol-3-ylamino)pyrimidin-2-ylamino)-5-fluoro-2-methylphenyl)piperidin-1-yl)(1-(ethylamino)cyclopropyl)methanone] yielded an IC50 of 4 nM. For `COc1cc(Nc2ncc(Cl)c(Nc3cc(C)[nH]n3)n2)c(C)cc1C1CCN(C)CC1` [Compound 219, 5-chloro-N2-(5-methoxy-2-methyl-4-(1-methylpiperidin-4-yl)phenyl)-N4-(5-methyl-1H-pyrazol-3-yl)pyrimidine-2,4-diamine], the IC50 was 9 nM. Compound `CNC1(C(=O)N2CCC(c3cc(F)c(Nc4ncc(Cl)c(Nc5cc(C)[nH]n5)n4)cc3C)CC2)CCC1` [Compound 177, (4-(4-(5-chloro-4-(5-methyl-1H-pyrazol-3-ylamino)pyrimidin-2-ylamino)-5-fluoro-2-methylphenyl)piperidin-1-yl)(1-(methylamino)cyclobutyl)methanone] has an IC50 of 80 nM. `CNC(=O)CN1CCC(c2cc(C)c(Nc3ncc(Cl)c(Nc4cc(C5CC5)[nH]n4)n3)cc2C)CC1` [Compound 33, 2-(4-(4-(5-chloro-4-(5-cyclopropyl-1H-pyrazol-3-ylamino)pyrimidin-2-ylamino)-2,5-dimethylphenyl)piperidin-1-yl)-N-methylacetamide] was tested, and the IC50 was 6 nM. `CCNC(=O)N1CCC(c2cc(C)c(Nc3ncc(Cl)c(Nc4cc(C)[nH]n4)n3)cc2C)CC1` [Compound 71, 4-(4-(5-chloro-4-(5-methyl-1H-pyrazol-3-ylamino)pyrimidin-2-ylamino)-2,5-dimethylphenyl)-N-ethylpiperidine-1-carboxamide] showed an IC50 of 2 nM. In the case of `Cc1cc(C2CCN(CC(N)=O)CC2)c(C)cc1Nc1ncc(Cl)c(Nc2cc(C(F)(F)F)[nH]n2)n1` [Compound 217, 2-(4-(4-(5-chloro-4-(5-(trifluoromethyl)-1H-pyrazol-3-ylamino)pyrimidin-2-ylamino)-2,5-dimethylphenyl)piperidin-1-yl)acetamide], the IC50 is reported as 34 nM. `Cc1cc(Nc2nc(Nc3cc(C)c(C4CNC4)cc3C)ncc2Cl)n[nH]1` [Compound 237, N2-(4-(azetidin-3-yl)-2,5-dimethylphenyl)-5-chloro-N4-(5-methyl-1H-pyrazol-3-yl)pyrimidine-2,4-diamine] was tested, and the IC50 was 410 nM. In the case of `Cc1cc(Nc2nc(Nc3cc(C)c(C4CCN(C(=O)[C@@H]5COCCN5)CC4)cc3F)ncc2Cl)n[nH]1` [Compound 143, (S)-(4-(4-(5-chloro-4-(5-methyl-1H-pyrazol-3-ylamino)pyrimidin-2-ylamino)-5-fluoro-2-methylphenyl)piperidin-1-yl)(morpholin-3-yl)methanone], the IC50 is reported as 71 nM. `CNC(=O)CN1CCC(c2cc(C)c(Nc3ncc(Cl)c(Nc4cc(C)[nH]n4)n3)cc2Cl)CC1` [Compound 45, 2-(4-(2-chloro-4-(5-chloro-4-(5-methyl-1H-pyrazol-3-ylamino)pyrimidin-2-ylamino)-5-methylphenyl)piperidin-1-yl)-N-methylacetamide] showed an IC50 of 18 nM. In the case of `Cc1cc(Nc2nc(Nc3cc(C)c(N4CCNCC4=O)cc3C)ncc2Cl)n[nH]1` [Compound 155, 1-(4-(5-chloro-4-(5-methyl-1H-pyrazol-3-ylamino)pyrimidin-2-ylamino)-2,5-dimethylphenyl)piperazin-2-one], the IC50 is reported as 1650 nM. Compound `Cc1cc(Nc2nc(Nc3cc(C)c(C4CCN(C5CCS(=O)(=O)C5)CC4)cc3F)ncc2Cl)n[nH]1` (centres unmarked) [Compound 145, 5-chloro-N^2-(2-fluoro-5-methyl-4-(1-(tetrahydro-1,1-dioxido-3-thienyl)piperidin-4-yl)phenyl)-N^4-(5-methyl-1H-pyrazol-3-yl)pyrimidine-2,4-diamine] has an IC50 of 18 nM. `Cc1cc(Nc2nc(Nc3cc(C)c([C@@H]4COC(=O)N4)cc3C)ncc2Cl)n[nH]1` [Compound 231, (R)-4-(4-(5-chloro-4-(5-methyl-1H-pyrazol-3-ylamino)pyrimidin-2-ylamino)-2,5-dimethylphenyl)oxazolidin-2-one] showed an IC50 of 50 nM. `COc1cc(Nc2ncc(Cl)c(Nc3cc(C)[nH]n3)n2)c(C)cc1C1CCN(C[C@H](O)C(F)(F)F)CC1` [Compound 213, (S)-3-(4-(4-(5-chloro-4-(5-methyl-1H-pyrazol-3-ylamino)pyrimidin-2-ylamino)-2-methoxy-5-methylphenyl)piperidin-1-yl)-1,1,1-trifluoropropan-2-ol] was tested, and the IC50 was 12 nM. Work on `Cc1cc(Nc2nc(Nc3cc(C)c(C4CCN(C5CN(S(C)(=O)=O)C5)CC4)cc3F)ncc2Cl)n[nH]1` [Compound 300, 5-chloro-N2-(2-fluoro-5-methyl-4-(1-(1-(methylsulfonyl)azetidin-3-yl)piperidin-4-yl)phenyl)-N4-(5-methyl-1H-pyrazol-3-yl)pyrimidine-2,4-diamine] yielded an IC50 of 32 nM. For `Cc1cc(Nc2nc(Nc3cc(C)c(C4CCN([C@@H](C)C(N)=O)CC4)cc3C)ncc2Cl)n[nH]1` [Compound 166, (S)-2-(4-(4-(5-chloro-4-(5-methyl-1H-pyrazol-3-ylamino)pyrimidin-2-ylamino)-2,5-dimethylphenyl)piperidin-1-yl)propanamide], the IC50 was 7 nM.
